# Reference: patent publication US20060068455A1, “GABA detection methods and applications” (priority 2004, published 2006)
# System: rat brain tissue
# Experiment: Real-time fluorescence detection of Ca^2+-dependent GABA release from rat neural tissue on GABA-T/SSADH sensor
# Assay type: cell-based
# Method: Adult Sprague-Dawley rats about 160 grams each were injected with an overdose of Nembutal. The brains or spinal cords were removed and washed several times with PBS and then embedded with 5% low melting temperature agarose (NuSieve® GAG® agarose, FMC BioProducts, Me.). The embedded brains or spinal cords were cut with a Vibratome (VT10003, LEICA Microsystems, Germany) in 300 μm tissue sections. Each tissue section was placed on a GABA-T/SSADH fluorometric silica glass sensor and then GABA released from the tissue sections were measured with Fluoroskan Ascent (Labsystems, Finland).
# The silica glass sensors of the present invention may be used to assay neural tissue and agents which affect neural tissue. […] Neural tissue, […], was cultured on GABA-T/SSADH sensors prepared inside tissue culture vessels. […] Therefore, GABA release is stimulated by Ca^2+.
# The effect of various agents on GABA release in rat neural tissue were assayed in real-time with a GABA-T/SSADH sensor. The agents tested were 2-APB (a cell-permeable IP3 receptor antagonist), Thapsigargin (a blocker of store-specific Ca^2+-ATPase), Ryanodine and caffeine (increase internal Ca^2+ level), and KN-93 (CAM kinase II inhibitor).
# FIGS. 10 and 11 show the effect of Thapsigargin and Ryanodine on Ca^2+-dependent GABA release, respectively. Therefore, the silica glass sensors of the present invention may be used for assaying the effect of various agents on cells and tissues cultured thereon.
SMILES,"less GABA release (75 μM 2-APB without 10 mM CaCl2 compared with 75 μM 2-APB with 10 mM CaCl2, FIG. 9)","effect on Ca^2+-dependent GABA release (75 μM 2-APB, rat neural tissue, FIG. 9)","GABA release versus controls (100 mM Ca^2+, rat brain tissue, FIG. 8)"
NCCOB(c1ccccc1)c1ccccc1 [2-APB],about 41.9%,inhibits Ca^2+-dependent GABA release,
[Ca+2].[Cl-].[Cl-] [Ca^2+],,,released more GABA than controls
